In PMC3260207, “Site-Directed Mutations and the Polymorphic Variant Ala160Thr in the Human Thromboxane Receptor Uncover a Structural Role for Transmembrane Helix 4” (PLoS ONE, 2012):
Positions count from the first letter of the chain named.

Key:
TP G164A mutant = biological target: T1, TP G164A mutant (Homo sapiens, UniProt P21731, G164A); assay: Saturation radioligand binding with [3H] SQ 29,548, membranes; conditions: picomoles of TP per milligram of total membrane protein, mean ± S.E
T1 construct: expressed in transfected cells; HEK293T (calcium assays)
T1 sequence (P21731 1-343 G164A): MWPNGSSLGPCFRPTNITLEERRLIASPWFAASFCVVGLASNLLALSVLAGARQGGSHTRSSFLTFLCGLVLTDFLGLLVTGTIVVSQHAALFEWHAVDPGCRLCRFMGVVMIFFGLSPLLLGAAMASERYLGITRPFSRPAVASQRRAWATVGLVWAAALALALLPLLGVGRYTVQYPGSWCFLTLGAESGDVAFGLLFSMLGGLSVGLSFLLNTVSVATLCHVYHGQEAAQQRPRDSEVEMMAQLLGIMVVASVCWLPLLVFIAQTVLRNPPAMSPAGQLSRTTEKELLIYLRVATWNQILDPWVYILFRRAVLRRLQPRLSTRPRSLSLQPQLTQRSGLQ
Protocol: (§1) Amino acid substitutions were introduced into the synthetic TPα gene carried by the expression vector pMT4 as described previously, [29]. DNA sequences of all the mutated genes were verified by automated DNA sequencing. To minimize variations in transfection efficiency, the total amount transfected DNA was kept constant in all cases at 1 µg of DNA per 7×10^5 cells. The wild type TP or mutant genes were expressed in COS-1 cells using a DEAE-dextran based transient transfection method, [29], and in HEK293T cells using lipofectamine 2000 (Invitrogen). Except unless specified, the membranes prepared from COS-1 cells were used for radioligand binding assays and immunoblots. For intracellular calcium determination assays and immunofluorescence imaging, HEK293T cells were used. For transient transfections of HEK293T cells using the plasmid pMT4, lipofectamine 2000 (Invitrogen) mediated transfection was used as described by the manufacturer. Membranes were prepared using Buffers A and B and as described previously, [29]. The protein concentration in the resuspended membrane pellet was determined using a modified DC protein assay kit from Bio-Rad Laboratories (Hercules, CA).
(§2) These were carried out in Buffer C for 60 min at room temperature, using 2 to 20 µg of membrane protein and different concentrations of [^3H] […] Binding of [^3H] […] Competition binding assays were performed using 4 nM [^3H] […] Binding was terminated by filtering under vacuum on GF/A filters (Millipore). Filter-bound radioactivity was measured using a liquid scintillation counter. Equilibrium dissociation constants (Kd) were determined from saturation isotherms using PRISM software version 5.0 (GraphPad Software Inc, San Diego, CA, USA). The Ki values were calculated from the IC50, using the equation of Cheng and Prusoff by PRISM software version 5.0.

TP A160S mutant = biological target: T2, TP A160S mutant (Homo sapiens, UniProt P21731, A160S); assay: as above; conditions: picomoles of TP per milligram of total membrane protein, mean ± S.E
T2 construct: expressed in transfected cells; HEK293T (calcium assays)
T2 sequence (P21731 1-343 A160S): T1 sequence (P21731 1-343 G164A) with A160S, A164G
Protocol: as §1, §2

[1] = biological target: T3, TP A160T mutant (nsSNP variant) (Homo sapiens, UniProt P21731, A160T); assay: Reversal of basal (agonist-independent) calcium mobilization in transfected HEK293T cells; format: cell-based; conditions: HEK293T cells pre-treated with 1 µM unlabelled SQ 29,548, p<0.05
T3 construct: expressed in transfected cells; HEK293T (calcium assays)
T3 sequence (P21731 1-343 A160T): T1 sequence (P21731 1-343 G164A) with A160T, A164G
Protocol: Changes in intracellular calcium were measured by using the fluorescent calcium sensitive dye Fluo-4NW (Invitrogen). After 6–8 hours of transient transfection of HEK293T cells using lipofectamine 2000, 100,000 viable cells were plated into each well of a 96-well tissue culture treated BD-falcon optilux plates. Cells mock transfected with vector pMT4 alone were used as a negative control. Following 24 hours of incubation at 37°C, the media was removed and cells were incubated with the dye Fluo-4NW (Invitrogen) containing 77 µg/ml of probenecid for 1 hour, as recommended by the manufacturer. […] Dose–response curves were generated and EC50 values calculated by nonlinear regression analysis using PRISM software version 5.0 (GraphPad Software Inc, San Diego, CA) after subtracting the responses of mock-transfected cells stimulated with same concentrations of agonists.
For estimation of calcium mobilized using the non-ratiometric calcium indicator Fluo-4NW, the ΔF/F ratio which approximately indicates calcium is calculated using the equation (19), ΔF/F = (F-Fbase)/(Fbase -B). Where F is the measured fluorescence intensity of Fluo-4NW, Fbase is the fluorescence intensity of Fluo-4NW in the cell before stimulation, and B is the background signal determined from areas adjacent to the cell. […]

With `O=C(O)CCC/C=C\C[C@@H]1[C@H](CNNC(=O)Nc2ccccc2)[C@H]2CC[C@@H]1O2` [SQ 29,548] the “Bmax, binding maximum of the ligand SQ 29,548 for the receptor” value (TP G164A mutant) was 6.3 ± 0.4 pmol/mg, the “Bmax, binding maximum of the ligand SQ 29,548 for the receptor” value (TP A160S mutant) was 5.8 ± 0.5 pmol/mg and the “Effect on basal (agonist-independent) calcium mobilization” value [1] was “significant decrease in basal activity”.
